Data taken from ChEMBL document CHEMBL5500372, “Novel natural osthole-inspired amphiphiles as membrane targeting antibacterials against methicillin-resistant Staphylococcus aureus (MRSA)” (Eur J Med Chem, 2024).

Columns and labels:
Staphylococcus aureus [1] = experiment: Antibacterial activity against Staphylococcus aureus ATCC 29213 measured after 18 hrs by CLSI based broth microdilution method; assay type: functional
Staphylococcus aureus [2] = experiment: Antibacterial activity against methicillin-resistant Staphylococcus aureus clinical isolate 17 measured after 18 hrs by CLSI based broth microdilution method; assay type: functional
Staphylococcus aureus [3] = experiment: Antibacterial activity against methicillin-resistant Staphylococcus aureus clinical isolate 13 measured after 18 hrs by CLSI based broth microdilution method; assay type: functional
Staphylococcus aureus [4] = experiment: Antibacterial activity against methicillin-resistant Staphylococcus aureus clinical isolate 23 measured after 18 hrs by CLSI based broth microdilution method; assay type: functional
Staphylococcus aureus [5] = experiment: Antibacterial activity against methicillin-resistant Staphylococcus aureus clinical isolate 16 measured after 18 hrs by CLSI based broth microdilution method; assay type: functional
Staphylococcus aureus [6] = experiment: Antibacterial activity against methicillin-resistant Staphylococcus aureus clinical isolate 21 measured after 18 hrs by CLSI based broth microdilution method; assay type: functional
Staphylococcus aureus [7] = experiment: Antibacterial activity against methicillin-resistant Staphylococcus aureus clinical isolate 11 measured after 18 hrs by CLSI based broth microdilution method; assay type: functional
Staphylococcus aureus [8] = experiment: Antibacterial activity against methicillin-resistant Staphylococcus aureus clinical isolate 12 measured after 18 hrs by CLSI based broth microdilution method; assay type: functional
Staphylococcus aureus [9] = experiment: Antibacterial activity against methicillin-resistant Staphylococcus aureus clinical isolate 20 measured after 18 hrs by CLSI based broth microdilution method; assay type: functional
Staphylococcus aureus [10] = experiment: Antibacterial activity against methicillin-resistant Staphylococcus aureus clinical isolate 22 measured after 18 hrs by CLSI based broth microdilution method; assay type: functional
Staphylococcus aureus [11] = experiment: Antibacterial activity against methicillin-resistant Staphylococcus aureus clinical isolate 14 measured after 18 hrs by CLSI based broth microdilution method; assay type: functional
Escherichia coli = experiment: Antibacterial activity against Escherichia coli ATCC 25922 measured after 18 hrs by CLSI based broth microdilution method; assay type: functional
[12] = Hemolytic activity in sheep erythrocyte assessed as hemolysis incubated for 1 hr by absorbance based analysis; assay type: toxicity, cell-based, Ovis aries; details: sheep erythrocytes
[13] = Selectivity index, ratio of HC50 for hemolytic activity in sheep erythrocyte assessed as hemolysis to MIC for antibacterial activity against Staphylococcus aureus ATCC 29213; assay type: toxicity; details: sheep erythrocytes, read-out: Selectivity Index

Row | SMILES | MIC (Staphylococcus aureus [1]) | MIC (Staphylococcus aureus [2]) | MIC (Staphylococcus aureus [3]) | MIC (Staphylococcus aureus [4]) | MIC (Staphylococcus aureus [5]) | MIC (Staphylococcus aureus [6]) | MIC (Staphylococcus aureus [7]) | MIC (Staphylococcus aureus [8]) | MIC (Staphylococcus aureus [9]) | MIC (Staphylococcus aureus [10]) | MIC (Staphylococcus aureus [11]) | MIC (Escherichia coli) | HC50 at 1 h [12] | selectivity ratio [13]
1 | CCN(CC)C(=O)C[N+](C)(C)CCCCCOc1ccc2ccc(=O)oc2c1CC=C(C)C.[Br-] | 32 µg/mL | 32 µg/mL | 32 µg/mL | 32 µg/mL | 32 µg/mL | 32 µg/mL | 32 µg/mL | 64 µg/mL | 32 µg/mL | 32 µg/mL | 32 µg/mL | 128 µg/mL | > 1280 µg/mL | 40
2 | CCCCN(CCCC)C(=O)C[N+](C)(C)CCCCOc1ccc2ccc(=O)oc2c1CC=C(C)C.[Br-] | 2 µg/mL | 4 µg/mL | 4 µg/mL | 4 µg/mL | 2 µg/mL | 2 µg/mL | 4 µg/mL | 8 µg/mL | 2 µg/mL | 2 µg/mL | 4 µg/mL | 64 µg/mL | > 1280 µg/mL | > 640
3 | CCCNC(=O)C[N+](C)(C)CCCOc1ccc2ccc(=O)oc2c1CC=C(C)C.[Br-] | 128 µg/mL | 128 µg/mL | 128 µg/mL | 128 µg/mL | 128 µg/mL | 128 µg/mL | 128 µg/mL | 64 µg/mL | 128 µg/mL | 128 µg/mL | 128 µg/mL | 128 µg/mL | > 1280 µg/mL | > 10
4 | CCCN(CCC)C(=O)C[N+](C)(C)CCCOc1ccc2ccc(=O)oc2c1CC=C(C)C.[Br-] | 32 µg/mL | 16 µg/mL | 32 µg/mL | 32 µg/mL | 32 µg/mL | 32 µg/mL | 32 µg/mL | 32 µg/mL | 32 µg/mL | 32 µg/mL | 16 µg/mL | 128 µg/mL | > 1280 µg/mL | > 40
5 | CC(C)=CCc1c(OCCCCC[N+](C)(C)CC(=O)N(CC(C)C)CC(C)C)ccc2ccc(=O)oc12.[Br-] | 2 µg/mL | 1 µg/mL | 2 µg/mL | 1 µg/mL | 1 µg/mL | 1 µg/mL | 1 µg/mL | 2 µg/mL | 1 µg/mL | 1 µg/mL | 1 µg/mL | 128 µg/mL | 960 µg/mL | 480
6 | CC(C)=CCc1c(OCCC[N+](C)(C)CC(=O)N(CC(C)C)CC(C)C)ccc2ccc(=O)oc12.[Br-] | 4 µg/mL | 4 µg/mL | 4 µg/mL | 4 µg/mL | 4 µg/mL | 4 µg/mL | 4 µg/mL | 8 µg/mL | 4 µg/mL | 4 µg/mL | 4 µg/mL | 128 µg/mL | > 1280 µg/mL | > 320
